Measured values: patent US20240209004A1, “BORIC ACID DERIVATIVE ACTING AS Beta-LACTAMASE INHIBITOR” (TUOJIE BIOTECH (SHANGHAI) CO., LTD., priority 2021, published 2024)
Values after ≈ are worked out from the molar mass of the structure shown. Where a name gives a salt, the structure may show the parent alone. Read-outs that look alike come from different tables or passages of the source.

Assays:
[1] = tested on: Escherichia coli ARLG-2829 (Urine); test: MIC of β-lactamase inhibitors in the presence of antibiotic (Test Example 1); assay type: cell-based; conditions: in the presence of Cefepime (8 ug/mL)
Description: (§1) • 1) The antibiotics cefepime and biapenem (purchased from MCE Inc.).
(§2) The biosafety cabinet was sterilized with ultraviolet light for 30 min. Glycerol tubes were taken out of a −80° C. freezer, and streaks were gently formed in the glycerol tubes using inoculating loops. Bacteria were inoculated onto MHIIA solid plates. The plates were incubated overnight in a 37° C. incubator.
(§3) 30 μL of compound stock solution was added to column 1 of a 96-well v-bottom plate, and DMSO was added to columns 2-10. Subsequently, 15 μL was transferred from column 1 to column 2 using a pipette and well mixed gently, and then 15 μL of solution was transferred from column 2 to column 3: the serial dilution process proceeded to column 10 (200×β-lactamase inhibitor working solutions were prepared). The two antibiotics were diluted with corresponding solvents to form 1.6 mg/mL solutions.
(§4) 1 μL of 200×B-lactamase inhibitor solution and 1 μL of 1.6 mg/mL antibiotic were added to a new 96-well round-bottom plate. The plate that had been incubated overnight was taken out of the incubator, and several monoclones were picked into normal saline using an inoculating loop. The bacterial solution was adjusted to a concentration of about 1.0×10^8CFU/mL and diluted 200-fold with medium, and 198 μL of the resulting bacterial solution was added to the test plate. The test plate was incubated in a 37° C.incubator for 18-24 h. The 96-well plate that had been incubated for 20 h was taken out of the incubator. The concentration that prevented visible bacterial growth was defined as the minimum inhibitory concentration.

[2] = tested on: Klebsiella pneumoniae ATCC BAA-1705; test: as above; assay type: cell-based
Description: as §1, §2, §3, §4

[3] = tested on: Klebsiella pneumoniae ATCC BAA-2472; test: as above; assay type: cell-based
Description: as §1, §2, §3, §4

[4] = tested on: cefepime-resistant Acinetobacter baumannii; test: MIC in combination with cefepime for drug-resistant bacteria (Test Example 2); assay type: cell-based; conditions: Acinetobacter baumannii, read-out: CPM MIC
Description: as §2
as §3, with “3;” for “3:”, “antibiotic was” for “two antibiotics were”, “with a” for “with”, “solvent” for “solvents”, “form a” for “form”, “solution.” for “solutions.”

[5] = tested on: cefepime-resistant Escherichia coli; test: as above; assay type: cell-based; conditions: Escherichia coli, read-out: CPM MIC
Description: as §2
as §3, with “3;” for “3:”, “antibiotic was” for “two antibiotics were”, “with a” for “with”, “solvent” for “solvents”, “form a” for “form”, “solution.” for “solutions.”

[6] = tested on: cefepime-resistant Klebsiella pneumoniae; test: as above; assay type: cell-based; conditions: Klebsiella pneumoniae, read-out: CPM MIC
Description: as §2
as §3, with “3;” for “3:”, “antibiotic was” for “two antibiotics were”, “with a” for “with”, “solvent” for “solvents”, “form a” for “form”, “solution.” for “solutions.”

[7] = tested on: cefepime-resistant Pseudomonas aeruginosa; test: as above; assay type: cell-based
Description: as §2
as §3, with “3;” for “3:”, “antibiotic was” for “two antibiotics were”, “with a” for “with”, “solvent” for “solvents”, “form a” for “form”, “solution.” for “solutions.”

[8] = tested on: Escherichia coli ATCC 25922; test: CPM MIC for control strain (Test Example 2); assay type: cell-based; conditions: ATCC25922; control strain Escherichia coli ATCC 25922 (printed range 0.016~0.12 μg/mL)
Description: as §2
as §3, with “3;” for “3:”, “antibiotic was” for “two antibiotics were”, “with a” for “with”, “solvent” for “solvents”, “form a” for “form”, “solution.” for “solutions.”

[9] = tested on: Pseudomonas aeruginosa ATCC 27853; test: CPM MIC for control strain (Test Example 2); assay type: cell-based; conditions: ATCC27853; control strain Pseudomonas aeruginosa ATCC 27853 (printed range 0.5~4 μg/mL)
Description: as §2
as §3, with “3;” for “3:”, “antibiotic was” for “two antibiotics were”, “with a” for “with”, “solvent” for “solvents”, “form a” for “form”, “solution.” for “solutions.”

[10] = tested on: cefepime-resistant Klebsiella pneumoniae expressing different types of β-lactamases; test: microbe, parasite or virus in culture; assay type: cell-based; conditions: Klebsiella pneumoniae
Description: as §2
as §3, with “antibiotic was” for “two antibiotics were”, “with a” for “with”, “solvent” for “solvents”, “form a” for “form”, “solution.” for “solutions.”

[11] = Single intravenous administration exposure, pharmacokinetics (Test Example 4); assay type: in vivo, ICR mice; conditions: ICR, mouse, in vivo, iv
Description: The solutions were prepared on the day of administration and stored at 4° C.
Single intravenous injections were administered to ICR mice, which were grouped as follows. Blood was collected from the saphenous vein or the fundus venous plexus at 0.083 h, 0.25 h, 0.5 h, 1 h, 2 h, 4 h, 6 h and 12 h after administration (about 0.1 mL/time point). A biological analysis method was developed to determine plasma concentrations at different time points, and related pharmacokinetic parameters were calculated.

[12] = in the presence of Biapenem (8 ug/mL)
[13] = in the presence of Cefepime (8 ug/mL)

O=C(O)c1c2c(cc3c1OB(O)C1CC31)OCCO2 (centres unmarked) [Compound 1]
Minimum inhibitory concentration [1]: 0.5 µg/mL
Minimum inhibitory concentration [2, 12]: ≤0.03125 µg/mL
Minimum inhibitory concentration [2, 13]: 0.5 µg/mL
Minimum inhibitory concentration [3, 12]: 4 µg/mL
Minimum inhibitory concentration [3, 13]: 16 µg/mL

O=C(O)c1c2c(cc3c1OB(O)C1CC31)OC(F)(F)O2 (centres unmarked) [Compound 2]
Minimum inhibitory concentration [1]: >16 µg/mL
Minimum inhibitory concentration [2, 12]: 1 µg/mL
Minimum inhibitory concentration [2, 13]: >16 µg/mL
Minimum inhibitory concentration [3, 12]: >16 µg/mL
Minimum inhibitory concentration [3, 13]: >16 µg/mL

NCCN[C@H]1CC[C@H](CC(=O)N[C@H]2Cc3cccc(C(=O)O)c3OB2O)CC1 [VNRX-5133]
Minimum inhibitory concentration [1]: 2 µg/mL
Minimum inhibitory concentration [2, 12]: ≤0.03125 µg/mL
Minimum inhibitory concentration [2, 13]: 0.25 µg/mL
Minimum inhibitory concentration [3, 12]: 2 µg/mL
Minimum inhibitory concentration [3, 13]: >16 µg/mL

CO/N=C(\C(=O)N[C@@H]1C(=O)N2C(C(=O)[O-])=C(C[N+]3(C)CCCC3)CS[C@H]12)c1csc(N)n1 [CPM, cefepime]
MIC ([4]; strain FDA-CDC AR-BANK#0033): > 8 µg/mL
MIC ([4]; strain FDA-CDC AR-BANK#0035): > 8 µg/mL
MIC ([4]; strain FDA-CDC AR-BANK#0078): > 8 µg/mL
MIC ([5]; strain FDA-CDC AR-BANK#0055): > 8 µg/mL
MIC ([5]; strain FDA-CDC AR-BANK#0114): > 8 µg/mL
MIC ([5]; strain FDA-CDC AR-BANK#0370): > 8 µg/mL
MIC ([5]; strain FDA-CDC AR-BANK#0371): > 8 µg/mL
MIC ([6]; strain FDA-CDC AR-BANK#0003): > 8 µg/mL
MIC ([6]; strain FDA-CDC AR-BANK#0076): > 8 µg/mL
MIC ([6]; strain FDA-CDC AR-BANK#0080): > 8 µg/mL
MIC ([6]; strain FDA-CDC AR-BANK#0126): > 8 µg/mL
MIC ([6]; strain FDA-CDC AR-BANK#0158): > 8 µg/mL
MIC ([7]; strain FDA-CDC AR-BANK#0246, read-out: CPM MIC): > 8 µg/mL
MIC ([7]; strain FDA-CDC AR-BANK#0439, read-out: CPM MIC): > 8 µg/mL
MIC ([7]; strain FDA-CDC AR-BANK#0441, read-out: CPM MIC): > 8 µg/mL
MIC ([7]; strain FDA-CDC AR-BANK#0444, read-out: CPM MIC): > 8 µg/mL
MIC [8]: 0.0156 µg/mL (≈ 0.0325 µM)
MIC [9]: 1 µg/mL (≈ 2.08 µM)
MIC ([10]; ATCCBAA1705, read-out: MIC, CPM, strain ATCC BAA-1705, KPC-2, TEM, SHV, Class A): > 128 µg/mL
MIC ([10]; ATCCBAA1705, read-out: MIC, single substance (1-1-Na, QPX7728, CPM), strain ATCC BAA-1705, KPC-2, TEM, SHV, Class A): 64 µg/mL (≈ 133 µM)
MIC ([10]; ATCCBAA1898, read-out: MIC, CPM, strain ATCC BAA-1898, KPC-2, Class A): > 128 µg/mL
MIC ([10]; ATCCBAA1898, read-out: MIC, single substance (1-1-Na, QPX7728, CPM), strain ATCC BAA-1898, KPC-2, Class A): 64 µg/mL (≈ 133 µM)
MIC ([10]; ATCCBAA1899, read-out: MIC, CPM, strain ATCC BAA-1899, KPC-2, Class A): > 128 µg/mL
MIC ([10]; ATCCBAA1899, read-out: MIC, single substance (1-1-Na, QPX7728, CPM), strain ATCC BAA-1899, KPC-2, Class A): 32 µg/mL (≈ 66.6 µM)
MIC ([10]; ATCCBAA2343, read-out: MIC, CPM, strain ATCC BAA-2343, KPC, Class A): > 128 µg/mL
MIC ([10]; ATCCBAA2343, read-out: MIC, single substance (1-1-Na, QPX7728, CPM), strain ATCC BAA-2343, KPC, Class A): 128 µg/mL (≈ 266 µM)
MIC ([10]; ATCCBAA2470, read-out: MIC, CPM, strain ATCC BAA-2470, NDM-1, Class B): > 128 µg/mL
MIC ([10]; ATCCBAA2470, read-out: MIC, single substance (1-1-Na, QPX7728, CPM), strain ATCC BAA-2470, NDM-1, Class B): > 128 µg/mL
MIC ([10]; read-out: MIC, CPM, strain ARLG-1127 (Urine), KPC, KPC-3, TEM, TEM-1, Class A): > 128 µg/mL
MIC ([10]; read-out: MIC, CPM, strain ARLG-1195, CTM-1 group, SHV, NDM, Class A, B): > 128 µg/mL
MIC ([10]; read-out: MIC, CPM, strain ARLG-1196, CTM-1 group, SHV, NDM, TEM, Class A, B): 128 µg/mL (≈ 266 µM)
MIC ([10]; read-out: MIC, single substance (1-1-Na, QPX7728, CPM), strain ARLG-1127 (Urine), KPC, KPC-3, TEM, TEM-1, Class A): > 128 µg/mL
MIC ([10]; read-out: MIC, single substance (1-1-Na, QPX7728, CPM), strain ARLG-1195, CTM-1 group, SHV, NDM, Class A, B): 64 µg/mL (≈ 133 µM)
MIC ([10]; read-out: MIC, single substance (1-1-Na, QPX7728, CPM), strain ARLG-1196, CTM-1 group, SHV, NDM, TEM, Class A, B): 128 µg/mL (≈ 266 µM)

O=C(O)c1c(F)ccc2c1OB(O)[C@@H]1C[C@H]21 [QPX7728 disodium salt]
AUC(0-inf) ([11]; 10 mg/kg): 46 µg·h/mL
AUC(0-t) ([11]; 10 mg/kg): 44.7 µg·h/mL
Cmax ([11]; 10 mg/kg): 65.8 µg/mL
Tmax ([11]; 10 mg/kg): 4.98 min
t½z ([11]; 10 mg/kg): 2.90 h
AUC(0-inf) ([11]; 100 mg/kg): 300 µg·h/mL
AUC(0-t) ([11]; 100 mg/kg): 297 µg·h/mL
Cmax ([11]; 100 mg/kg): 399 µg/mL
Tmax ([11]; 100 mg/kg): 4.98 min
t½z ([11]; 100 mg/kg): 2.1 h
